Experimental data taken from the kinase profiling compilation of Christmann-Franck et al. (2016).

Experiments:
Experiment in all cases: KINOMEscan competition binding
Details in all cases: compound 10.0 µM
GAK (human) = GAK (human) (UniProt O14976)
SGK3 (human) = SGK3 (human) (UniProt Q96BR1)
CDK5 (human) = CDK5 (human) (UniProt Q00535)
CHUK (human) = CHUK (human) (UniProt O15111)
PRKCH (human) = PRKCH (human) (UniProt P24723)
ACVR1B (human) = ACVR1B (human) (UniProt P36896)
PAK3 (human) = PAK3 (human) (UniProt O75914)
DYRK1A (human) = DYRK1A (human) (UniProt Q13627)
GSK3B (human) = GSK3B (human) (UniProt P49841)
MST4 (human) = MST4 (human) (UniProt Q9P289)
PRKCE (human) = PRKCE (human) (UniProt Q02156)
PIM1 (human) = PIM1 (human) (UniProt P11309)
PLK3 (human) = PLK3 (human) (UniProt Q9H4B4)
RPS6KA2 KD1 (human) = RPS6KA2 KD1 (human) (UniProt Q15349)
TNIK (human) = TNIK (human) (UniProt Q9UKE5)
ERBB3 (human) = ERBB3 (human) (UniProt P21860)
ACVR2A (human) = ACVR2A (human) (UniProt P27037)
NUAK1 (human) = NUAK1 (human) (UniProt O60285)
RIPK4 (human) = RIPK4 (human) (UniProt P57078)
BMPR1A (human) = BMPR1A (human) (UniProt P36894)
INSR (human) = INSR (human) (UniProt P06213)
AKT2 (human) = AKT2 (human) (UniProt P31751)
MAP3K1 (human) = MAP3K1 (human) (UniProt Q13233)
SIK1 (human) = SIK1 (human) (UniProt P57059)
ALK (human) = ALK (human) (UniProt Q9UM73)
FGFR1 (human) = FGFR1 (human) (UniProt P11362)
MAP3K5 (human) = MAP3K5 (human) (UniProt Q99683)
PRKD3 (human) = PRKD3 (human) (UniProt O94806)
FLT3 (human) = FLT3 (human) (UniProt P36888)
[1] = biological target: JAK1 JH1 catalytic (human) (UniProt P23458)
[2] = tested on: FLT3 (human), P36888 [R834Q]
PLK4 (human) = PLK4 (human) (UniProt O00444)
ACVR1 (human) = ACVR1 (human) (UniProt Q04771)
AURKB (human) = AURKB (human) (UniProt Q96GD4)
DMPK (human) = DMPK (human) (UniProt Q09013)
LATS2 (human) = LATS2 (human) (UniProt Q9NRM7)
PAK4 (human) = PAK4 (human) (UniProt O96013)
CAMKK2 (human) = CAMKK2 (human) (UniProt Q96RR4)
HIPK3 (human) = HIPK3 (human) (UniProt Q9H422)
EIF2AK1 (human) = EIF2AK1 (human) (UniProt Q9BQI3)

PIM1 (human), sequence (P11309 whole entry, looked up): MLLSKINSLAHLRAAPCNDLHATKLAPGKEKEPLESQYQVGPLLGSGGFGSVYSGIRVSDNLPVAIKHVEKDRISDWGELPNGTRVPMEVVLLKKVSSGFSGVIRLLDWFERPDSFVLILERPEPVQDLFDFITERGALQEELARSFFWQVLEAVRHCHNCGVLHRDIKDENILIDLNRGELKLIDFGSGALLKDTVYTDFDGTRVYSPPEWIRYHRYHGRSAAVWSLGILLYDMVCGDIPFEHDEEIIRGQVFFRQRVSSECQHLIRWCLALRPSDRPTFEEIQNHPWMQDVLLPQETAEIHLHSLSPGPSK
SIK1 (human), sequence (P57059 whole entry, looked up): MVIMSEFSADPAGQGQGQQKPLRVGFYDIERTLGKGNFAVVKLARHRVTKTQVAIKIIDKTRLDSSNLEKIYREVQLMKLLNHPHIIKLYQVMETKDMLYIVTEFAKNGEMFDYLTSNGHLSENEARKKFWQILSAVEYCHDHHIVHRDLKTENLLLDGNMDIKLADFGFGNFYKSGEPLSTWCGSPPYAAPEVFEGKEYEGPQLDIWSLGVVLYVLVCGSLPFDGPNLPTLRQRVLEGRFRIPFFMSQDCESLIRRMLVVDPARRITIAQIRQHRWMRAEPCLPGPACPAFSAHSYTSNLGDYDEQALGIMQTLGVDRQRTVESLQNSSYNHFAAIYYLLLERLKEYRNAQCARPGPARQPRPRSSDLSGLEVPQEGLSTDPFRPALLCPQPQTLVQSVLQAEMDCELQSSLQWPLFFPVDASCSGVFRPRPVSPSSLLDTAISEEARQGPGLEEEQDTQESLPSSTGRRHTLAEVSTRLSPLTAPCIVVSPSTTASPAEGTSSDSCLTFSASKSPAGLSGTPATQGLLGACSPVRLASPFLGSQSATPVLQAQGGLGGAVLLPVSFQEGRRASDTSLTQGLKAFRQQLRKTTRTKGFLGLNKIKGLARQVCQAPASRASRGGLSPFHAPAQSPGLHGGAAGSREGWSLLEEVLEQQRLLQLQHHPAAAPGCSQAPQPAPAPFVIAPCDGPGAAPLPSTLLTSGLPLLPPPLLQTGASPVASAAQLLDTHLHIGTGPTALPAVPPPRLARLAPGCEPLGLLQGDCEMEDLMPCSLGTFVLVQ
SGK3 (human), sequence (Q96BR1 whole entry, looked up): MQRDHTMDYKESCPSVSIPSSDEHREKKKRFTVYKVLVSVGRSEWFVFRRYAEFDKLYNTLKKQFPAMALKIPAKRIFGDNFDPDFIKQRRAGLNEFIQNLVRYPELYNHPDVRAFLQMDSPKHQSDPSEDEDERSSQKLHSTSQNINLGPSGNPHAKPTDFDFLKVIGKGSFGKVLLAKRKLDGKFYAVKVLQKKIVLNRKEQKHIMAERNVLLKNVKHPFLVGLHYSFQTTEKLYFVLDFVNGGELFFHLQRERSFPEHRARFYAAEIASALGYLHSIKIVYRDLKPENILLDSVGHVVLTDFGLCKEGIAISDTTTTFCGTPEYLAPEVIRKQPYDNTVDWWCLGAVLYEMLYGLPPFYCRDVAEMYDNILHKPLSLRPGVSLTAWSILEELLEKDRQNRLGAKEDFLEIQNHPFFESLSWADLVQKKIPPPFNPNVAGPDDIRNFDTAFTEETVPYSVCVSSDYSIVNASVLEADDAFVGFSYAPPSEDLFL
LATS2 (human), sequence (Q9NRM7 whole entry, looked up): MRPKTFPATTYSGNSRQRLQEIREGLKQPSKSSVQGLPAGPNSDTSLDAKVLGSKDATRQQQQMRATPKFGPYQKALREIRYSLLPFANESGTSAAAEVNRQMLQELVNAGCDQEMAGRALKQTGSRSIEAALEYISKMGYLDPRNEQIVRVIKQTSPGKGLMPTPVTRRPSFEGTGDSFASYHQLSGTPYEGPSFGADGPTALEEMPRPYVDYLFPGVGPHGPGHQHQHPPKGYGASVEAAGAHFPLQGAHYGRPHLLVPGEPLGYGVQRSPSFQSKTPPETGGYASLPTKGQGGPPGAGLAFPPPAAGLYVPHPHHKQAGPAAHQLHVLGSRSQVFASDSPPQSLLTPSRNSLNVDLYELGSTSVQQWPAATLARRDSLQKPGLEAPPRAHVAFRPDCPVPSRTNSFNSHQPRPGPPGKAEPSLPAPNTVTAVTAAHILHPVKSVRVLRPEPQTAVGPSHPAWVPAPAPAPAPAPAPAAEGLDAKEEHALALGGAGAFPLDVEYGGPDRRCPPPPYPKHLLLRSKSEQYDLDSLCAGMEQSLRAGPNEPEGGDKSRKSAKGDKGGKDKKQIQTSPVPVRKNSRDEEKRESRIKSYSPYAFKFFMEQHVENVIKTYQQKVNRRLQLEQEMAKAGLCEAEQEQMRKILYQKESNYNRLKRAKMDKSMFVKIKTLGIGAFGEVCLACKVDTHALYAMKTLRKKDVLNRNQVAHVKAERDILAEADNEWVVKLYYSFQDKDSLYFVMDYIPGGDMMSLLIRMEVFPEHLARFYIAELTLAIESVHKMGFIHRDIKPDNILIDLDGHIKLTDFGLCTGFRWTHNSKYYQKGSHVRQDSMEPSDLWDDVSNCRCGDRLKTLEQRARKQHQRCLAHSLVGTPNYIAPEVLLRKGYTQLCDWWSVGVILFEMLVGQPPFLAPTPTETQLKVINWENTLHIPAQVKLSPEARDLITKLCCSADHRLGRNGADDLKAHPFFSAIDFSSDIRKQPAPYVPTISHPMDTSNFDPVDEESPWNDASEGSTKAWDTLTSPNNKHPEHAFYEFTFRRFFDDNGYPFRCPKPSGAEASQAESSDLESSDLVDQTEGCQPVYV
CAMKK2 (human), sequence (Q96RR4 whole entry, looked up): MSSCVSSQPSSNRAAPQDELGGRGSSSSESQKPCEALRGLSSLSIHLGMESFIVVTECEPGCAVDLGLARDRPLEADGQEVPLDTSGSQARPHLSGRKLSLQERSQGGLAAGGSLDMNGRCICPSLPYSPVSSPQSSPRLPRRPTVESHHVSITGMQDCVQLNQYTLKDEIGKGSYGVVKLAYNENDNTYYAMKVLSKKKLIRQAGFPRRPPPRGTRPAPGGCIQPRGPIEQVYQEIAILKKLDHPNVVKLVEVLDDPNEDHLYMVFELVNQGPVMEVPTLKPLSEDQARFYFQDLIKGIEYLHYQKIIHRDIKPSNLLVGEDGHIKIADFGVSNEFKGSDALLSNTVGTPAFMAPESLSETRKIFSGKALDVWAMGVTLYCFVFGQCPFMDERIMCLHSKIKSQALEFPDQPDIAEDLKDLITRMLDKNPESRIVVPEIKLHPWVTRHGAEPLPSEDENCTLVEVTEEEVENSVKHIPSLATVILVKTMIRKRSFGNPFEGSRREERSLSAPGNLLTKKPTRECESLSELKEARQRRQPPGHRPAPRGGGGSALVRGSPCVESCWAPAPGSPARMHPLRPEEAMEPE
GSK3B (human), sequence (P49841 whole entry, looked up): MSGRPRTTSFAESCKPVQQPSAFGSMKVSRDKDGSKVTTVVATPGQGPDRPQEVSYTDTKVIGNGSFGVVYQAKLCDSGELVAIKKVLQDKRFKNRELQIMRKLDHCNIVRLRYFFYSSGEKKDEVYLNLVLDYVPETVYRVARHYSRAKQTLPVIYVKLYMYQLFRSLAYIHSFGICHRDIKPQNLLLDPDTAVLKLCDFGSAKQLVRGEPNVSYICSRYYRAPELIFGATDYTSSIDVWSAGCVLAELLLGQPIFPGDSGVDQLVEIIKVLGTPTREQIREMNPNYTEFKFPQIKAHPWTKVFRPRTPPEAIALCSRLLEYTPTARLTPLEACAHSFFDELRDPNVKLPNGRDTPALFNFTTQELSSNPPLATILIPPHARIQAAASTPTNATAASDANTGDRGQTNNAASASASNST
PLK4 (human), sequence (O00444 whole entry, looked up): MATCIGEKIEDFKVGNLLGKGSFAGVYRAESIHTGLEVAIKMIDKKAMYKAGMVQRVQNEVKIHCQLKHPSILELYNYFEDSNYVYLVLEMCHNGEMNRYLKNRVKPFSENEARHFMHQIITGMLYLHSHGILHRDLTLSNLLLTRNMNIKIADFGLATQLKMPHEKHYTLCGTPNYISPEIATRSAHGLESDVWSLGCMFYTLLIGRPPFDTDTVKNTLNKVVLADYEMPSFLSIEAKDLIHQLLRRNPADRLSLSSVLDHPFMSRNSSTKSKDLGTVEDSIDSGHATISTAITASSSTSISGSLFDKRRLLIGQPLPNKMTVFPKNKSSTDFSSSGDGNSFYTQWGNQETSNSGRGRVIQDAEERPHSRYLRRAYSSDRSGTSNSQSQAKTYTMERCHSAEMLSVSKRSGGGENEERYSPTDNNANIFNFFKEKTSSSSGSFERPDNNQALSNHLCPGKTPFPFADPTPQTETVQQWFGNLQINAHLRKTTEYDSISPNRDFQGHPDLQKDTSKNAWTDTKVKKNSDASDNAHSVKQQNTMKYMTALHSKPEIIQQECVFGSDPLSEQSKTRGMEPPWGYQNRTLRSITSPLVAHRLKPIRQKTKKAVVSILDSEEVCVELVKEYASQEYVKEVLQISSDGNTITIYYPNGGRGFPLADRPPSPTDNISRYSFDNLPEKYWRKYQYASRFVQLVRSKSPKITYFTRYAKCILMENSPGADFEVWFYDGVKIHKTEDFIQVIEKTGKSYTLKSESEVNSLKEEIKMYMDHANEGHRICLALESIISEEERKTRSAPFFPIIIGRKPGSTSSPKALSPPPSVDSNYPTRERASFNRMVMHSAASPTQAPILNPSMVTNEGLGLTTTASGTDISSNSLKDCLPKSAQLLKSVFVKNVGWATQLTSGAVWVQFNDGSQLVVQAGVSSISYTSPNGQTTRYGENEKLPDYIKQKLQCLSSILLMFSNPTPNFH
CDK5 (human), sequence (Q00535 whole entry, looked up): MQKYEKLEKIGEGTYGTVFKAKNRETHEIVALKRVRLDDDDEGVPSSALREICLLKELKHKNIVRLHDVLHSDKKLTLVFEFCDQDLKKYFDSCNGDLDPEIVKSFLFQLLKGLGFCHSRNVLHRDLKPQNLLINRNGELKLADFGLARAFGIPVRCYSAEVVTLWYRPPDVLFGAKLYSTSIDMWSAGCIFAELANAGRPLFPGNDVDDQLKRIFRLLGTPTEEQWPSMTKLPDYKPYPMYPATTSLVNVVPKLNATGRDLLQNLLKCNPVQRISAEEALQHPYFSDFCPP

COc1cc(C(=O)N2CCC(N3CCN(C)CC3)CC2)ccc1Nc1ncc2c(n1)N(C)c1ccccc1C(=O)N2C
kinase still bound, per cent of control (GAK (human)): 16% | kinase still bound, per cent of control (SGK3 (human)): 95% | kinase still bound, per cent of control (CDK5 (human)): 81% | kinase still bound, per cent of control (CHUK (human)): 100% | kinase still bound, per cent of control (PRKCH (human)): 100% | kinase still bound, per cent of control (ACVR1B (human)): 100% | kinase still bound, per cent of control (PAK3 (human)): 83% | kinase still bound, per cent of control (DYRK1A (human)): 99% | kinase still bound, per cent of control (GSK3B (human)): 88% | kinase still bound, per cent of control (MST4 (human)): 95% | kinase still bound, per cent of control (PRKCE (human)): 100% | kinase still bound, per cent of control (PIM1 (human)): 100% | kinase still bound, per cent of control (PLK3 (human)): 51% | kinase still bound, per cent of control (RPS6KA2 KD1 (human)): 83% | kinase still bound, per cent of control (TNIK (human)): 100% | kinase still bound, per cent of control (ERBB3 (human)): 100% | kinase still bound, per cent of control (ACVR2A (human)): 100% | kinase still bound, per cent of control (NUAK1 (human)): 47% | kinase still bound, per cent of control (RIPK4 (human)): 74% | kinase still bound, per cent of control (BMPR1A (human)): 76% | kinase still bound, per cent of control (INSR (human)): 84% | kinase still bound, per cent of control (AKT2 (human)): 100% | kinase still bound, per cent of control (MAP3K1 (human)): 95% | kinase still bound, per cent of control (SIK1 (human)): 77% | kinase still bound, per cent of control (ALK (human)): 13% | kinase still bound, per cent of control (FGFR1 (human)): 86% | kinase still bound, per cent of control (MAP3K5 (human)): 100% | kinase still bound, per cent of control (PRKD3 (human)): 42% | kinase still bound, per cent of control (FLT3 (human)): 100% | kinase still bound, per cent of control [1]: 100% | kinase still bound, per cent of control [2]: 100% | kinase still bound, per cent of control (PLK4 (human)): 0% | kinase still bound, per cent of control (ACVR1 (human)): 98% | kinase still bound, per cent of control (AURKB (human)): 38% | kinase still bound, per cent of control (DMPK (human)): 100% | kinase still bound, per cent of control (LATS2 (human)): 95% | kinase still bound, per cent of control (PAK4 (human)): 94% | kinase still bound, per cent of control (CAMKK2 (human)): 31% | kinase still bound, per cent of control (HIPK3 (human)): 89% | kinase still bound, per cent of control (EIF2AK1 (human)): 100%
